Assay [1] addresses T1, Monoglyceride lipase (Homo sapiens, UniProt Q99685).
T1 sequence (Q99685 whole entry): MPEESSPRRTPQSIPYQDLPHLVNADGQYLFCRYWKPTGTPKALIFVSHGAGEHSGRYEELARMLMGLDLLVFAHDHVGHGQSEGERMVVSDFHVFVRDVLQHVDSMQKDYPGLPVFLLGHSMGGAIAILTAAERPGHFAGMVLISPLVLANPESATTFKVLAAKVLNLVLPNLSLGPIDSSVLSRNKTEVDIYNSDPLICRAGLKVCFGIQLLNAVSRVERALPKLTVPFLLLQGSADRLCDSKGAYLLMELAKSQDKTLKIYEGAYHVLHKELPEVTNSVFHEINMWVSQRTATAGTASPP
Briefly: Inhibition of recombinant human C-terminal His-tagged MAGL expressed in Escherichia coli using 4-NPA as substrate measured after 30 mins.

For assay [2], the target named is Estrogen receptor beta (Homo sapiens) (UniProt Q92731). Description: Displacement of [3H]-estradiol from full length human ERbeta expressed in insect cells after 18 to 24 hrs by radiometric method relative to estradiol.
Estrogen receptor beta (Homo sapiens), sequence (Q92731 whole entry): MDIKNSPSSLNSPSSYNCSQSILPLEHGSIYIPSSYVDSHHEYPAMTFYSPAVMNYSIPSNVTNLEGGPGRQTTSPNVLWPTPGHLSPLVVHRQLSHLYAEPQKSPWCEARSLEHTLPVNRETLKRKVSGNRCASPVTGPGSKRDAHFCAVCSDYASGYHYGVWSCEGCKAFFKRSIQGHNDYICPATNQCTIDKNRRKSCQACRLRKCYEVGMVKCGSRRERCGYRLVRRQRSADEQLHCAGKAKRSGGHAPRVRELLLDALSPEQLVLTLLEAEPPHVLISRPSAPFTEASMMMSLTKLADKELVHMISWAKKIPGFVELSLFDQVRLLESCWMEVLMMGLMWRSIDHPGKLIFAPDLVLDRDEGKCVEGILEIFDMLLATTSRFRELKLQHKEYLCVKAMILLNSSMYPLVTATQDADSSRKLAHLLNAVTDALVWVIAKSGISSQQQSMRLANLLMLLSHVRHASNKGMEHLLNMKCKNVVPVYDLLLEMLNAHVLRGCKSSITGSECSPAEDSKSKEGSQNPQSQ
Assay [3] deals with T2, Estrogen receptor (Homo sapiens) (UniProt P03372).
T2 sequence (whole entry): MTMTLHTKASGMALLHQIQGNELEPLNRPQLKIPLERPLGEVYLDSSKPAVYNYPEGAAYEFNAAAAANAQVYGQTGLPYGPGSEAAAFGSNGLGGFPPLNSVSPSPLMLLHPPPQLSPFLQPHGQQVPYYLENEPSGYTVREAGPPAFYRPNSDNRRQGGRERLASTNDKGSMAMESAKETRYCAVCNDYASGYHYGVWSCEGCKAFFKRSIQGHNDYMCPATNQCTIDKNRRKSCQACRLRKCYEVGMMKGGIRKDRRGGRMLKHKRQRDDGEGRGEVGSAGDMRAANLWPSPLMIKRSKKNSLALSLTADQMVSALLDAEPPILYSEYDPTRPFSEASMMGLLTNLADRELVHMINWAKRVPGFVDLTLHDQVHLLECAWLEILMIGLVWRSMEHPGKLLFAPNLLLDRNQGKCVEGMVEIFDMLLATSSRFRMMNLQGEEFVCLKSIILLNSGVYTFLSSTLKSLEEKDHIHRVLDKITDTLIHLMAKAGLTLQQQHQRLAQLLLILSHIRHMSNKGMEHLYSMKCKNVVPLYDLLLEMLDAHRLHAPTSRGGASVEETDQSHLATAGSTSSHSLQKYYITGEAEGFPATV
Briefly: Displacement of [3H]-estradiol from full length human untagged ERalpha expressed in Sf insect cells after 18 to 24 hrs by radiometric method relative to estradiol. A general note: Displacement assays read how much labelled ligand stays bound in the presence of the test substance.

Assay [4] concerns the target T3, Fatty-acid amide hydrolase 1 (Homo sapiens, UniProt O00519).
T3 sequence (O00519 whole entry): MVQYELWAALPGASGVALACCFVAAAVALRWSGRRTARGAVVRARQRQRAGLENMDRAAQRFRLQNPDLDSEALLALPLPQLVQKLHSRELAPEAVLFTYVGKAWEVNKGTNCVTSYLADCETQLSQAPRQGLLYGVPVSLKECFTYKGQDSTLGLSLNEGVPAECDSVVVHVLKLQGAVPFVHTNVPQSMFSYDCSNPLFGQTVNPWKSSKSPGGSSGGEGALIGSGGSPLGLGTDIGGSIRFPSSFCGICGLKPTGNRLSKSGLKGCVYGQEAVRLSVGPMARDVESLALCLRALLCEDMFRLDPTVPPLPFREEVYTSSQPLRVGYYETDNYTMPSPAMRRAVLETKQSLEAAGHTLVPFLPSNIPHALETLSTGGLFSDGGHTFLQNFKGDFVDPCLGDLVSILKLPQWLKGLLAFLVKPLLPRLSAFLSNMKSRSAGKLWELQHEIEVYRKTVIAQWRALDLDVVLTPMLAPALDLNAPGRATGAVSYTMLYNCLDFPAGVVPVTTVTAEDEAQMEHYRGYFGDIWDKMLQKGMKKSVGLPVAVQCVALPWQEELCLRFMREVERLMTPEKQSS
Briefly: Inhibition of FAAH in human U937 cells using [ethanolamine-1-3H]AEA as substrate pretreated for 30 mins followed by substrate addition and measured after 15 mins by liquid scintillation counting method. Type of assay: cell-based.

For assay [5], the system named is OVCAR-3. Description: Antiproliferative activity against human OVCAR3 cells measured after 96 hrs. Type of assay: functional, cell-based. The settings on record: OVCAR-3, 96 h.
Assay [6] deals with MDA-MB-231. Description: Antiproliferative activity against human MDA-MB-231 cells measured after 96 hrs. Type of assay: functional, cell-based. To be noted: MDA-MB-231, 96 h.
In assay [7] the target is T1, Monoglyceride lipase. Description: Inhibition of recombinant human C-terminal His-tagged MAGL expressed in Escherichia coli using 4-NPA as substrate pretreated with substrate 15 mins in presence of DTT followed by enzyme addition measured after 30 mins.
Assay [8] has as its system HCT-116. Briefly: Antiproliferative activity against human HCT116 cells measured after 96 hrs. Type of assay: functional, cell-based. The settings on record: HCT-116, 96 h.
Assay [9] has as its target T4, Monoglyceride lipase (Homo sapiens) (UniProt Q99685).
T4 sequence (whole entry): T1 sequence (Q99685 whole entry)
Briefly: Reversible inhibition of recombinant human C-terminal His-tagged MAGL expressed in Escherichia coli at 20 uM using 4-NPA as substrate pretreated for 60 mins followed by 40 times compound dilution for 15 mins and subsequent substrate addition measured after 30 mins.

The test system of assay [10] is Caov-3 cell line. Briefly: Antiproliferative activity against human Caov3 cells measured after 96 hrs. Type of assay: functional, cell-based. To be noted: Caov-3, 96 h.
Assay [11] addresses T1, Monoglyceride lipase. Briefly: Inhibition of recombinant human C-terminal His-tagged MAGL expressed in Escherichia coli using 4-NPA as substrate pretreated with substrate 15 mins followed by enzyme addition measured after 30 mins.
Assay [12] has as its target T5, Cannabinoid receptor 1 (Homo sapiens, UniProt P21554). Briefly: Displacement of [3H]CP55940 from recombinant human CB1 expressed crude membranes after 90 mins by liquid scintillation counting method.
Assay [13] concerns the target T5, Cannabinoid receptor 1. Briefly: Displacement of [3H]CP55940 from recombinant human CB1 expressed in crude membranes at 10 uM after 90 mins by liquid scintillation counting method relative to control. Type of assay: cell membranes.
The target in assay [14] is T4, Monoglyceride lipase (Homo sapiens). Description: Reversible inhibition of recombinant human C-terminal His-tagged MAGL expressed in Escherichia coli using 4-NPA as substrate pretreated up to 60 mins followed by substrate addition and measured after 30 mins.
Assay [15] concerns SK-OV-3. Description: Antiproliferative activity against human SKOV3 cells measured after 96 hrs. Type of assay: functional, cell-based. To be noted: SK-OV-3, 96 h.

Activity calls are given as the source filed them. The calls are words filed in the database; no cut-off is given here.

T5 sequence (P21554 whole entry): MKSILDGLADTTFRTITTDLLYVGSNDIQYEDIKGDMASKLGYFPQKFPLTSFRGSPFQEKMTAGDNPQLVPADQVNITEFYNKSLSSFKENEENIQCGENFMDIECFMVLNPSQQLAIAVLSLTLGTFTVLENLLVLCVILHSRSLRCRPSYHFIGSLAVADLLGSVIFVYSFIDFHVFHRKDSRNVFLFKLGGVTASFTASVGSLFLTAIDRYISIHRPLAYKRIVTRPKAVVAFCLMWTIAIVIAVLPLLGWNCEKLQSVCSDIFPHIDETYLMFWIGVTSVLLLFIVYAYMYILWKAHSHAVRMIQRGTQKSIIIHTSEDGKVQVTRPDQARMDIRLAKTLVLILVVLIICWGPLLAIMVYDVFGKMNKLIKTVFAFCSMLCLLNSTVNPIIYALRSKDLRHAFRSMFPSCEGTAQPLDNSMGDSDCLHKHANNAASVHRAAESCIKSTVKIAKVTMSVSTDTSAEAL

As to `CC/C(=N\O)c1cc(-c2ccc(O)c(F)c2)ccc1O`, in [1], the IC50 – broadly, the concentration that inhibits the measured activity by half – stood at 11 µM. In addition, the RBA was found to be 37% in [2] and 2.1% in assay [3].

In the case of `CCCCCCCCCCCCC/C(=N\O)c1cc(-c2ccc(O)c(F)c2)ccc1O`, the IC50 was determined as 0.68 µM in assay [1]; 8.7 µM in assay [4]; 28 µM in assay [5]; 73 µM in assay [6]; 0.7 µM in assay [7]; 11 µM in [8]. In addition, the IC50 stood at 14 µM in [10], 0.68 µM in assay [11], 4.1 µM in assay [12] and 26 µM in assay [15]. In addition, the inhibition result in assay [9] and in assay [14] was “Active” each time. Besides, in assay [13], the inhibition (commonly the drop in the measured response relative to a control, in per cent) turned out to be 5%.

With `CCCCCCCCCCCCC/C(=N\O)c1cc(-c2ccc(OC)c(F)c2)ccc1O`, the IC50 in [1] is more than 200 µM.

Consider `CCCCCCCCCCC/C(=N\O)c1cc(-c2ccc(O)c(F)c2)ccc1O`, for which the IC50 came to 0.71 µM in assay [1]; 4.1 µM in assay [4]; 40 µM in assay [5]; 45 µM in assay [6]; 7.6 µM in [8]; 11 µM in assay [10]. Besides, the half-inhibitory concentration (IC50) was 2.6 µM in [12] and 20 µM in assay [15]. Further, in [13], the inhibition amounted to 5%.

For `CCCCCCCCCCCCCCC/C(=N\O)c1cc(-c2ccc(OC)c(F)c2)ccc1O`, the IC50 in assay [1] is more than 200 µM.

Regarding `COc1nn(-c2ccc(NC(=O)OCc3ccccc3)c(C)c2)c(=O)o1`, the IC50 in [5] came out at 50 µM; in assay [6] it was 42 µM; in assay [8] it was 89 µM; in [10] it was 92 µM; in [15], 34 µM.

As for `C/C(=N\O)c1cc(-c2ccc(O)c(F)c2)ccc1O`, in assay [1], the concentration for half-maximal inhibition (IC50) was determined as 34 µM.

In the case of `CCCC/C(=N\O)c1cc(-c2ccc(OC)cc2)ccc1O`, the IC50 in assay [1] stood at 119 µM.

Values taken from ChEMBL document CHEMBL4270621, “Discovery of long-chain salicylketoxime derivatives as monoacylglycerol lipase (MAGL) inhibitors” (Eur J Med Chem, 2018).
